Assay results published in patent US20220347167A1, “A NEW TREATMENT FOR MEIBOMIAN GLAND DYSFUNCTION” (The Schepens Eye Research Institute, Inc., priority 2019, published 2022).

Assays:
HIF1α = HIF1α expression in IHMGECs by western blot; format: cell-based, human; design: HIF1α accumulation in IHMGECs, combination of Roxa and low O2: dose or concentration left out as unconfirmed
Description: Authenticated IHMGECs were grown and passaged in keratinocyte serum-free medium (KSFM) with 5 ng/mL epidermal growth factor (EGF) and 50 μg/mL bovine pituitary extract (BPE) (Thermo Fisher Scientific, Waltham, Mass.) under 21% O2 (normoxia) [Liu et al. (2010) Investigative ophthalmology & visual science 51:3993-4005; McDermott et al. (2018) Current eye research 43:1097-1101; Liu et al. (2013) Investigative ophthalmology & visual science 54:2541-2550]. Upon reaching 60% to 70% confluence, culture media were replaced by a 1:1 mixture of Dulbecco's modified Eagle's medium and Ham's F12 (DMEM/F12, Corning Life Sciences, Tewksbury, Mass.), supplemented with 10% fetal bovine serum (FBS, Atlanta Biologicals, Flowery Branch, Ga.) [Sullivan et al. (2014) Investigative ophthalmology & visual science 55:3866-3877; Liu et al. (2014) JAMA ophthalmology 132:226-228]. […] Culture plates of cells in the hypoxic condition were incubated inside hypoxia chambers filled with a premade 1% O2, 5% CO2 and 94% N2 gas mixture (Linde Gas North America, Hammond, Ind.), according to published protocols in Liu et al. (2019) The ocular surface 17(2):310-317 and Wright and Shay (2006) Nat Protoc 1:2088-2090. Following cell medium changes, the chambers were re-flushed with the gas mixture before returning to the incubator. […] Cell culture experiments (n=3 wells/treatment) were repeated at least 3 times.
[…] The cells were lysed in 2× Laemmli sample buffer (Bio-Rad Laboratories, Hercules, Calif.) and sonicated to extract nuclear protein [Andersen et al. (2002) Current biology: CB 12:1-11]. Human hepatocellular carcinoma cell lines (HepG2 cells) (America Type Culture Collection, Manassas, Va.), which express high concentration of HIF1α under CoCl2 stimulation for 4 hours [Yoo et al. (2014) Journal of cellular biochemistry 115:1147-1158], were used as a positive control for HIF1α antibody. The CoCl2 was purchased from Sigma-Aldrich Corp (St. Louis, Mo.). Cell lysates were then evaluated for HIF1α (1:1000, BD Biosciences, San Jose, Calif.) or β-actin (1:10,000, Cell Signaling Technology) expression. […]

[1] = test system: apolipoprotein E-deficient (ApoE −/−) mice; assay: MGD model in ApoE −/− mice: tear volume and meibomian gland size; format: in vivo, mouse; conditions: Roxa 10 mg/kg subcutaneous, three times per week for 12 weeks
Description: Two groups of ApoE KO mice (vehicle-treated ApoE −/−, as control, and Roxa-treated ApoE −/−), as well as wild-type C57BL/6J mice, were measured for weight, tear volume, corneal fluorescein staining and tear breakup time (TBUT). ApoE −/− mice were randomly divided into 2 groups (n=8 mice/group): control and Roxa-treated. The ApoE−/− mice were treated with vehicle control (2% DMSO in sterile saline, subcutaneous injection) or Roxa (10 mg/kg, subcutaneous injection). The injections were administrated three times/week; on Monday, Wednesday, and Friday mornings; for 12 weeks. At the end of the study, the weight, tear volume, corneal fluorescein staining and tear breakup time (TBUT) were weighted again for comparison. The bar chart in FIG. 6 compares mean tear volume of each group of mice after treatment.
After the Roxa treatment, as described in FIG. 6, the eyelids of each mouse were dissected to assess meibomian gland size and morphology. […]
At the beginning of the study, the 16 ApoE−/− mice and 4 wild-type (WT) C57BL/6J mice, 12 weeks of age, were measured for their weight, tear volume, corneal fluorescein staining and tear breakup time (TBUT). […] At the end of the study, the weight, tear volume, corneal fluorescein staining and tear breakup time (TBUT) were measured again. […]

## Cc1nc(C(=O)NCC(=O)O)c(O)c2ccc(Oc3ccccc3)cc12 [Roxa, roxadustat]
HIF1α; 21% O2, 6 hours, vs 1% O2 alone
  HIF1α expression in IHMGECs, Roxa compared with low O2 alone: significantly more HIF1α expression than low O2 alone
HIF1α; 6 hours
  HIF1α accumulation in IHMGECs, combination of Roxa and low O2: greatest accumulation
HIF1α; Roxa (10 μM elsewhere in the source), normoxic 21% O2, 6 hours, vs control
  HIF1α expression in IHMGECs (band intensity normalized to β-actin): significantly increased
[1]; vs control group and WT mice, p<0.01
  tear volume: significantly increased
[1]; vs control group, p<0.05
  meibomian gland loss in the mice eyelids (MG area): significantly reduced
